Measurements taken from patent US20240335505A1, “PRODUCTS AND METHODS FOR PROMOTING MYOGENESIS” (Ecole Polytechnique Federale de Lausanne (EPFL), priority 2021, published 2024).

Columns and labels:
C. elegans = test: Muscle function and morphology in aged C. elegans; assay type: in vivo; conditions: day 15 of adulthood; verteporfin 10 uM from L4 stage; egl-44 RNAi by maternal treatment (FIG. 19A-F)
Description: Transgenic Caenorhabditis Elegans. C. elegans strains were cultured at 20° C. on nematode growth medium (NGM) agar plates seeded with E. coli strain OP50 unless stated otherwise. Strains used in this study were the wild-type Bristol N2 and COP2054. N2 strain was provided by the Caenorhabditis Genetics Center (University of Minnesota). For RNAi experiments, worms were exposed to egl-44 RNAi or an empty vector control plasmid using maternal treatment to ensure robust knock down of the investigated gene. Verteporfin was dissolved in DMSO, and used at a final concentration of 10 uM. Worms were exposed to verteporfin starting from L4 stage. Verteporfin or DMSO was added to agar before preparing plates. To ensure a permanent exposure to the compound, plates were changed twice a week. The COP2054 worm strain expressing human CYTOR was generated by a custom transgenic service (Knudra Transgenics, Salt Lake City, UT). Briefly, Mosi-mediated Single Copy Insertion (MosSCI) started with the construction of myo3p::CYTOR::tbb2u, where the myo3p promoter and tbb-2 3′-UTR were taken from the N2 genome, and CYTOR was synthesized with codon and intron optimization for C. elegans. […]
C. […] 45 to 60 worms per condition were manually scored for paralysis after poking. Worms that were unable to respond to any repeated stimulation were scored as dead. […]

Tead1 = biological target: T1, Tead1 (Mus musculus, UniProt P30051); test: C2C12 myoblast differentiation after disruption of Tead1 function (siRNA or Verteporfin); assay type: cell-based
T1 construct: endogenous in cells; host or cells: C2C12 mouse myoblasts (ATCC CRL-1772)
T1 sequence (P30051 whole entry): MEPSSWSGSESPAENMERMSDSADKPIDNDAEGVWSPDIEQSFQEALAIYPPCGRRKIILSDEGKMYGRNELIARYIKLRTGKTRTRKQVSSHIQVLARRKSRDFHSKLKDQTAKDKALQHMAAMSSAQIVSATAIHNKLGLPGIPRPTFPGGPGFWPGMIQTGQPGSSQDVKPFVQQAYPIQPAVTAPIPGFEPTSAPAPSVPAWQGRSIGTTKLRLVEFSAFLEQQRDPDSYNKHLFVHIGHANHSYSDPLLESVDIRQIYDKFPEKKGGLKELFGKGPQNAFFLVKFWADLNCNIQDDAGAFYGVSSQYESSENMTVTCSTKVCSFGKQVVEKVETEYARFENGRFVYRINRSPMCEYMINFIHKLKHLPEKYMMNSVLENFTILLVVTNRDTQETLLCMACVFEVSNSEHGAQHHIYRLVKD
Description: Cell culture. The C2C12 mouse myoblast cell line was obtained from the American Type Culture Collection (CRL-1772TM). C2C12 and HEK293T cells (CRL-3216™, ATCCR) were cultured in growth medium consisting of Dulbecco's modified Eagle's medium (Gibco, 41966-029), 20% Fetal Bovine Serum (Gibco, 10270-106) and 100 U/mL penicillin and […] streptomycin (Gibco, 15140-122). Differentiation of Cytor/CYTOR overexpressing cells or Tead1 silenced cells were assessed in culture medium. Human skeletal muscle myoblasts (Lonza, Switzerland) were cultured in DMEM/F12 Glutamax (31331093, Gibco) supplemented with 20% FBS (Gibco, 10270-106) and 1% penicillin/streptomycin (15140-122, Gibco). Human skeletal muscle myoblasts from young, old and DMD donors were obtained from the Groupement Hospitalier Est (CBC BioTec, Centre de Ressources Biologique) and cultured in Ham F10 medium (11550043, Thermo Fisher) with 12% FBS (10270-106, Gibco) and 1% penicillin/streptomycin (Gibco, 15140-122). Muscle cell differentiation was achieved by substituting FBS with 2% horse serum (Gibco, 16050-122). For detachment Trypsin-EDTA 0.05% (25300-062, Gibco) was used for all cell lines. All cells were maintained at 37° C. and 5% CO2. Cell lines were continuously tested for mycoplasma contamination.
Cell transfection and transduction. Cell transfections were done using TransiT (Mirus) according to the manufacturer's protocol with a 3:1 ratio of transfection agent to DNA. 24 well plates were transfected with 150 ng DNA, 12 well plates with 300 ng DNA, and 6 well plates with 1 ug DNA. To transfect 25 nM GapmeR or siRNA in C2C12, LipofectamineR RNAiMAX (Thermo Scientific, 13778100) was used following manufacturer's instructions. […]
Immunocytochemistry. […] The myofusion index was calculated as the ratio of nuclei within myotubes to total nuclei. Myotube diameter was measured for 10 randomly chosen myotubes per image. Myotube area was calculated as the total area covered by myotubes. […]

myotube area (Tead1; C2C12 myoblasts (FIG. 18B)): increase myotube area
myofusion (Tead1; C2C12 myoblasts (FIG. 18C)): increase
expression of type II myosin isoforms (Tead1; C2C12 myoblasts (FIG. 18D)): induce the expression of type II
Substance: Verteporfin
function and morphology of aged C. elegans (movement, speed, activity, paralysis, death) (C. elegans): phenocopied the beneficial effect of Cytor
